Assay results as given in US12479866B2, “Boron-containing rho kinase inhibitors” (Percipiad, Inc., priority 2019, dated 2025).
Values joined by “and” are separate entries in the source; they are usually repeats but may differ in a detail not shown here. Equal values may be shown once.

How the values were obtained:
AKT1 = AKT1 (Homo sapiens (Human), UniProt P31749); experiment: AGC Kinase Selectivity Profiling (ADP-Glo); format: biochemical; settings: 1 μM compound; AGC Panel; read-out: Percent enzyme activity inhibition, AKT1
Chain of AKT1 (P31749 whole entry): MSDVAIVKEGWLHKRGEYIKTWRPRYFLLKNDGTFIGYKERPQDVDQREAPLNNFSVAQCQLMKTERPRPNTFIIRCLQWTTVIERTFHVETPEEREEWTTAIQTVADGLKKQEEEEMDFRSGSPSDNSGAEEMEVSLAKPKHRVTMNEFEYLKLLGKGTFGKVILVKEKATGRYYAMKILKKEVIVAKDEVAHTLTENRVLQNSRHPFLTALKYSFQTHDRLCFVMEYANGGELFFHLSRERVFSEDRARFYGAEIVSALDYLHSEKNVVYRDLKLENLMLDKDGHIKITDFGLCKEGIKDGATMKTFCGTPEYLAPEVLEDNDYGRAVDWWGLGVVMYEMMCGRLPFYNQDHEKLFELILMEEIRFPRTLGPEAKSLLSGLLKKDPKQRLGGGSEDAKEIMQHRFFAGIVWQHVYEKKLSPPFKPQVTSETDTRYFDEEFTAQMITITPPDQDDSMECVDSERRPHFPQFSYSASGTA
Description: ROCK1 (also called ROCK I, ROKβ, Rho-kinase β, or p160ROCK) and ROCK2 ((also known as ROCK II, ROKα, or Rho kinase) belong to AGC family of serine/threonine kinases. The group of AGC kinases consists of 63 evolutionarily related serine/threonine protein kinases comprising PDK1, PKB/Akt, SGK, PKC, PRK/PKN, MSK, RSK, S6K, PKA, PKG, DMPK, MRCK, ROCK, NDR, LATS, CRIK, MAST, GRK, Sgk494, and YANK, while two other families, Aurora and PLK, are the most closely related to the group (Leroux et al., AGC kinases, mechanisms of regulation and innovative drug development, Semin Cancer Biol. 2018 February; 48:1-17).

[1] = system: New Zealand White rabbits; settings: 0.1 ml, 20 mg/ml in saline
Description: The right eye that was not treated served as the control. […] The eyes of initial and confirmatory test animals were examined with slit lamp for ocular lesions. […] The animals were also observed for clinical signs of toxicity, morbidity and mortality.

ROCK2 [2] = target: T1, ROCK2 (Homo sapiens (Human), UniProt O75116); experiment: ROCK2 ADP-Glo kinase enzyme inhibition assay; format: biochemical; settings: Exp #3; read-out: ROCK2 IC50(Exp #3)
T1 sequence (O75116 whole entry): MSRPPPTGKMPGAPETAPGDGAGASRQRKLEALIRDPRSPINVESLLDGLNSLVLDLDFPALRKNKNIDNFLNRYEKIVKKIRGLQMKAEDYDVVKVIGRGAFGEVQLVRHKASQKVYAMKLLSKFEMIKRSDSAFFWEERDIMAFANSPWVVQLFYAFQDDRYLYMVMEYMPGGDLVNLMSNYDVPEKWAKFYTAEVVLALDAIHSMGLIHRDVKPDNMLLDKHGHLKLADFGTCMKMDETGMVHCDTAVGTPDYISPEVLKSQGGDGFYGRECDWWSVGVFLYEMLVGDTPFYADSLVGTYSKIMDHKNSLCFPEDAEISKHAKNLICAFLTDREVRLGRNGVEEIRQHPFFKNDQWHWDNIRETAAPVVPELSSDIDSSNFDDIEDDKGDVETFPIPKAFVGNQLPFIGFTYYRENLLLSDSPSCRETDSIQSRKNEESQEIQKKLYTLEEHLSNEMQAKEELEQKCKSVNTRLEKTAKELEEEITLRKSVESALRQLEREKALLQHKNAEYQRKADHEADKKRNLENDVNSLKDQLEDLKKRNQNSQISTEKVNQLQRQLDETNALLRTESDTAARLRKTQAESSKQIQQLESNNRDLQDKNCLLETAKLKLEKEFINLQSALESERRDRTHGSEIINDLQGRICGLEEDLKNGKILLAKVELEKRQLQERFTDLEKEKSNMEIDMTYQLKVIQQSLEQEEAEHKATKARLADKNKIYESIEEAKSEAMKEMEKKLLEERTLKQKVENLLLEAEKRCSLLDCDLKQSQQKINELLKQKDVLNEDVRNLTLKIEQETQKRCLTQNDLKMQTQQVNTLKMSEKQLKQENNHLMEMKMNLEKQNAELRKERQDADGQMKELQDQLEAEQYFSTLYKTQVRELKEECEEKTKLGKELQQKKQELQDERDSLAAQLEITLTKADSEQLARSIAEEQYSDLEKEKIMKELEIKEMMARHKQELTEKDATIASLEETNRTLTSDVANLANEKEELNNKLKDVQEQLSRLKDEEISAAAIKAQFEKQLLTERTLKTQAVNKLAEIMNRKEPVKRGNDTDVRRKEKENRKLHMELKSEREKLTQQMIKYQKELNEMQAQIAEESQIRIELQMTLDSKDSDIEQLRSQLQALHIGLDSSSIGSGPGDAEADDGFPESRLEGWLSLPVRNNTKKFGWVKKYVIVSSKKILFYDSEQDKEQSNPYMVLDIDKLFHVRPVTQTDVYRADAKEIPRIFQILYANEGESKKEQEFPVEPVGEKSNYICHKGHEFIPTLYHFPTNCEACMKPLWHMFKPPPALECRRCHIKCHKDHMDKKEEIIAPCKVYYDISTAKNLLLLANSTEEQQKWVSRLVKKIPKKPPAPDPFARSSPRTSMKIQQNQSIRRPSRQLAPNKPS
Method: We measured ROCK and PKA kinase enzyme activity inhibition by compounds using commercially available ROCK1 (Promega Corporation, cat #V9581), ROCK2 (Promega, cat #V4045), and PKA kinase (Promega, cat #V4247) ADP-Glo™ assay kits. ADP-Glo™ Kinase Assay is a luminescent ADP detection assay that provides a homogeneous method to measure kinase activity by quantifying the amount of ADP produced during a kinase reaction. The assay is performed in two steps. First, after the kinase reaction, an equal volume of ADP-Glo™ Reagent is added to terminate the kinase reaction and deplete the remaining ATP. Second, the Kinase Detection Reagent is added to simultaneously convert ADP to ATP and allow the newly synthesized ATP to be measured using a luciferase/luciferin reaction. The light generated is measured using a luminometer. A complete protocol is included with the kits and is also available at the Promega website. The assay is briefly described below. • 1. Diluted enzyme, substrate, ATP, and compounds (inhibitors) in Kinase Buffer (40 mM Tris, 7.5, 20 mM MgCl2, 0.1 mg/ml BSA, 50 μM DTT). • 2. Added 1 μl of inhibitor, 2 μl of enzyme and 2 μl of substrate/ATP mix to the wells of 384-well low volume nonbinding assay plate A series of three-fold dilution of inhibitor was prepared and assayed for each inhibitor. • 3. Incubated at room temperature for 60 minutes. • 4. Added 5 μl of ADP-Glo™ Reagent. • 5. Incubated at room temperature for 60 minutes. • 6. Added 10 μl of Kinase Detection Reagent • 7. Incubated at room temperature for 30 minutes.
Recorded luminescence (Integration time 1 second) using a plate-based luminometer.
Calculated Percent Enzyme Activity: First subtract the signal of the negative control (no enzyme and no inhibitor) from each sample's signal. Then use the mean relative light units (RLU) values for the 0% kinase activity (neither inhibitor nor enzyme) and the 100% kinase activity (no compound) to calculate the other percent enzyme activities remaining in the presence of the different dilutions of inhibitor.
Inhibitor stock solutions of 10 mM are made in DMSO and stored at −20° C. Dilutions were made in assay buffer immediately before use.

HEK293 cells = experiment: CellTiter-Glo Luminescent Cell Viability Assay; settings: HEK293 cells, 25, 2.5, or 0.25 μM, two days
Method: We used CellTiter-Glo® Luminescent Cell Viability Assay (Promega, cat #G7573) to determine the number of viable cells in culture based on quantitation of the ATP present, which signals the presence of metabolically active cells. • 1. Prepared HEK293 suspension culture cells (ThermoFisher, cat #A14635) and added 50 μl cells in media (12,500 cells) to each well of a white, opaque-walled 96-well plate in triplicate. • 2. […] Incubated at 37° C. and 5% CO2 for two days. • 4. Added 100 μl of CellTiter-Glo® Reagent to each well and mix contents for 2 minutes on an orbital shaker to induce cell lysis. • 5. Recorded luminescence using a plate luminometer.

[3] = target: PKA-NanoLuc fusion protein (Homo sapiens (Human), UniProt P17612); experiment: PKA-NanoBRET Target Engagement Intracellular Kinase Assay in HEK293 cells; format: cell-based; settings: live HEK293 cells, 2 hours; read-out: Estimated IC50, inhibition of NanoBRET tracer binding to PKA
Method: NanoBRET™ TE assay is based on the NanoBRET™ System, an energy transfer technique designed to measure molecular proximity in living cells. The NanoBRET™ TE assay measures the apparent affinity of test compounds by competitive displacement of the NanoBRET™ tracer, reversibly bound to a NanoLuc® luciferase-kinase fusions in cells. Using the NanoBRET™ TE Kinase Assay, a fixed concentration of tracer is added to cells expressing the desired NanoLuc® kinase fusion to generate a BRET signal. […] Centrifuged culture, resuspended cells in fresh culture media, and dispense 85 ul in to wells of 96-well plate. • 3. […] Added 10 μl of 10× serially diluted inhibitor compound per well containing cells with IX NanoBRET Tracer Reagent. Thoroughly mixed plate on an orbital shaker for 15 seconds at 700 rpm. • 5. […] Equilibrated plate to room temperature for ˜15 minutes. • 6. […] Measured donor emission wavelength (450 nm) and acceptor emission wavelength (610 nm) using the GloMax® Discover System (Promega). To generate raw BRET ratio values, divided the acceptor emission value (610 nm) by the donor emission value (450 nm) for each sample.

[4] = Octanol/buffer partition coefficient (log D7.4); format: physicochemical; settings: n-octanol / pH 7.4 phosphate buffer, read-out: log D at pH 7.4
Method: In a single incubation, 15 μL of a 10 mM DMSO solution of each test article was added to test tubes, which contained 0.75 mL of n-octanol and 0.75 mL of pH 7.4 phosphate buffer. Testosterone was also introduced to each tube as an internal control, also at a dosing concentration of 100 μM. These samples were gently mixed on a benchtop rotator for 1 hour at room temperature. The tubes were then removed from the rotator and the aqueous and organic phases were allowed to separate for 1 hour. […] As a methods control, the log D of testosterone was also measured at a satisfactory value.

ROCK2 [5] = target: T1, ROCK2; experiment: Stability in varied buffers and temperatures, measured by ROCK2 inhibition; format: physicochemical
[6] = water, thermodynamic from solid

Compound: Cl.Cl.NCC(C(=O)Nc1ccc2cnccc2c1)c1ccc(B(O)O)cc1 (centres unmarked) [Compound 10•2HCl]
- inhibition at 1 µM (AKT1): 52%
- clinical signs of toxicity, morbidity and mortality [1]: No treatment-related adverse effects were noticed
- IC50 (ROCK2 [2]): 28 nM
- Cell viability (ATP amount) (HEK293 cells): same amount of ATP as cells without inhibitor
- IC50 [3]: 1420 nM
- logD [4]: 0.822
- % ROCK2 inhibition at 20 nM (ROCK2 [5]; 25 mM Borate pH 7 (0.5 mg/ml), 15 days at 23° C.): 36%
- % ROCK2 inhibition at 20 nM (ROCK2 [5]; 25 mM Borate, pH 7 (0.5 mg/ml), 15 days at −20° C.): 34%
- % ROCK2 inhibition at 20 nM (ROCK2 [5]; 25 mM Borate, pH 7, 150 mM NaCl (0.5 mg/ml), 15 days at 23° C.): 32%
- Stability in solution (ROCK2 [5]; pH 5 and 7 buffers, room temperature): stable in pH 5 and 7 buffers at room temperature for 15 days
- solubility [6]: > 100000 µg/mL and > 234000 µM
